Data reported in US6465636B1, “Pathogen-inducible promoter” (Zeneca Mogen B.V., priority 1998, dated 2002).
Read-outs that look alike come from different tables or passages of the source.

System: ms59 messenger
Assay: Induction of ms59 messengers in sunflower leaves, transcript levels by competitive RT-PCR
Format: in vivo, Helianthus annuus cv Zebulon
Conditions: Helianthus annuus, read-out: fold induction of the ms59 messenger relative to the control
Description: Leaves of 7 to 8 weeks old Sunflower plants (Helianthus annuus cv Zebulon) were induced by spraying 5 times with 5 mM salicylic acid (SA), spraying once with 1 mM salicylic acid, once with 0.1 mm jasmonic acid (JA), once with 1 mM ACC (1-aminocyclopropane-1-carboxylic acid, a precursor of the plant hormone ethylene) or wounding. Leaf samples were harvested from induced leaves after 24 hours (1 mM SA, 0.1 mM JA, 1 mM ACC and wounding) and after 5 days (5 mM SA). Control samples were taken at 24 hours after induction in non-induced plants.
Total RNA was extracted from 10 g leaf material using a hot phenol method and purified using the Qiagen RNA buffer set and tip-100 columns (Qiagen GmbH, Germany). Contaminating DNA was degraded using a Dnase I (Gibco BRL) treatment.
cDNA was prepared using 1 μg total RNA, 1 μl oligo(dT)12-18 primers (500 μg/ml, Gibco BRL) and 200 units of Superscript II RT RNAse H reverse transcriptase (Gibco BRL) as described by the manufacturer.
Transcript levels of ms59 were determined using the competitive RT-PCR technology.
PCR MIMIC dilutions were made in a range of […] to 0.01 ag/μl in H2O containing 0.2 μg/μl glycogen as a carrier.
The cDNA samples were analysed in a competitive RT-PCR. Therefore 2 µl of the samples was combined in a 0.5 ml tube with 1 μl diluted PCR MIMIC (amounts; 0.1 pg, 10 fg, 1.0 fg, 0.1 fg, 10 ag and 1.0 ag). Amplification of cDNA and MIMIC was performed using 10 μM of the primers FR-MS59-47 and FR-MS59-77, 0.5 μl 20 mM dNTP's, 1×PCR buffer, MgCl and 2.5 units recombinant Taq DNA polymerase (Gibco BRL) and was allowed to proceed for 35 cycles, 1′ 95° C., 1′ 55° C., 2′ 72° C. PCR products were separated on a 2% agarose gel and visualized by staining with ethidium bromide and a UV illuminator.

## NC1(C(=O)O)CC1 [ACC, 1-aminocyclopropane-1-carboxylic acid]
24 h
  fold induction at 1000 µM: 10

## CC/C=C\C[C@H]1C(=O)CC[C@@H]1CC(=O)O [jasmonic acid]
24 h
  fold induction at 100 µM: 10

## O=C(O)c1ccccc1O [salicylic acid]
120 h, 5 mM, leaves sprayed 5 times, harvested after 5 days
  fold induction at 5000 µM: 1000
1 mM, leaves sprayed once, harvested after 24 hours
  fold induction at 1000 µM: 1
